# Legend:
# [1] = system: Fruit flies, Drosophila Melanogaster; assay: Egg laying of fruit flies on plates containing allicin (repellent activity); type: in vivo
# Description: Fruit flies, Drosophila Melanogaster, were grown in a plastic container and allowed to lay eggs in laying bottles (6×4 cm) containing allicin (100 μl) in various concentrations (0-12 mM). Allicin was introduced to the egg-laying sites on a ring of Whatman (3 mm) paper placed at the periphery of the egg laying plate which was placed at the bottom of the bottle. A yeast paste (fly food) was applied in the middle of the plate. Female fruit flies (N=100) were introduced into the laying bottle and were allowed to lay eggs for 16 hours. At the end of the 16 hours, the number of eggs was counted in each plate. The total number of eggs laid by the flies was 1440. The repellent effect of allicin on the fruit fly was determined by measuring the number of laid eggs during the continuous exposure of the flies to the various concentrations of allicin. The results are shown in FIG. 1a as a percentage of laid eggs in the presence of each concentration of allicin in comparison with the number of eggs laid by flies in the absence of allicin (first column, left—100%). […] At the end of the 8 hours, the number of eggs was counted in each plate. […] The repellent effect of allicin on the fruit fly was determined by measuring the number of laid eggs in allicin-free plates for 8 hours after the 16-hour exposure of the flies to the various concentrations of allicin. […]
# [2] = system: hatched larvae of fruit fly; assay: Lethality of hatched larvae on egg-laying plates with allicin; type: in vivo, Drosophila Melanogaster; settings: allicin stock 1-2 mg/ml added to egg-laying plates, about 200 eggs per plate
# Description: In an additional experiment, lethality of 80-90% of the hatched larvae produced in the second phase of the fly life cycle was caused by addition of allicin (stock 1-2 mg/ml) to egg-laying plates containing about 200 eggs per plate (not shown).
# [3] = system: fruit flies that attack the persimmon trees; assay: Spraying of persimmon trees with allicin, repellent effect on fruit flies; type: in vivo, fruit fly; settings: trees sprayed with water solution 0.1-0.2 g/l (0.5-1 mM) every second week, 12 weeks, 6 sessions, FIG. 2
# Description: (§1) Persimmon trees (Oriental persimmon of the type “Fuyu”, 2.5-3 meters tall) in the Hasharon region, Israel, were sprayed with a water solution of allicin (0.1-0.2 g/l, 0.01-0.02% or 0.5-1 mM) every second week, during a 12-week period, for a total of 6 sessions. Spraying with allicin was started 2-3 weeks after persimmon fruit setting, when the fruits reached 1-2 cm in diameter. The spraying was performed in such a way as to wet the leaves and the fruits completely. No other insecticides or other treatments were used in parallel or at any point of the experiment. FIG. 2 is a photograph showing persimmon fruits from trees treated with allicin (left) and from untreated trees (right).
# [4] = system: Persimmon trees (Oriental persimmon of the type "Fuyu"); assay: Damage to leaves of persimmon trees after spraying with allicin; type: in vivo; settings: water solution 0.1-0.2 g/l, 6 sprayings over 12 weeks
# Description: as §1
# ants = assay: Repellent effect of allicin on ants; type: in vivo
# Description: Treatment of the locus of an ant colony with a water solution of allicin (1 mg/ml) prevented the ants from reentering the place for at least 3 days.
compound,measurement,setting,value
"C=CCS[S+]([O-])CC=C (stereo not shown) [allicin, thio-2-propene-1-sulfinic acid S-allyl ester]","repellent activity, inhibition of egg laying by the flies (% of eggs laid vs no allicin)","[1]; 0-12 mM allicin (100 μl), 16 hours continuous exposure, FIG. 1a",dose-dependent
same,inhibition of capability of the flies to lay eggs on allicin-free plates after exposure,"[1]; 8 hours on allicin-free plates after 16 hours exposure to 0-12 mM allicin, FIG. 1b",significant inhibition effect
same,lethality of hatched larvae,[2],80-90%
same,"repellent effect on fruit flies, appearance of persimmon fruits",[3],repellent effect on fruit flies
same,damage to leaves after spraying,[4],no damage
same,crossing of a treated line in the floor by ants,"ants; water solution of allicin 1 mg/ml on a line in the floor, even after the solution dried off",prevented the crossing of the line by ants
same,time ants were prevented from reentering the treated locus of the colony,ants; water solution of allicin 1 mg/ml on locus of an ant colony,at least 3 days

# Reference: patent US20060110472A1, “Use of allicin as insect repellent and insecticide in agricultural crops” (priority 2002, published 2006)
